Like-named read-outs stand apart in the source and are kept apart here.
What was measured:
T-47D = experiment: NCI one-dose SRB assay (Breast Cancer); type: cell-based, human; conditions: for Growth Percent: 1.00E-5 Molar
Experimental: (§1) The structures of all the newly prepared pyridine-ureas 8a–n were submitted to the National Cancer Institute (NCI) Developmental Therapeutic Program. Eight compounds 8b, 8d, 8e, 8i, 8j and 8l–n were selected to be examined for their in vitro growth inhibitory activity. The anticancer assays were carried out according to the protocol of the Drug Evaluation Branch, NCI, Bethesda. The selected pyridine-ureas were tested at one dose primary anticancer assay against a panel of approximately 58 cancer lines (concentration 10^−5 M). The tested human cancer cell lines emerged from nine different cancer subtypes: leukemia, colon, melanoma, ovarian, lung, CNS, renal, breast and prostate cancers. The sulforhodamine B (SRB) protein assay was adopted to estimate the cell viability and growth. The results were reported as mean-graph of the percentage growth of the treated cells, and presented as percentage growth inhibition (GI%) caused by the test compounds (Table 2).
(§2) The anticancer assays were performed in accordance with the protocol of the Drug Evaluation Branch, NCI, Bethesda. A 48 h drug exposure protocol was used and sulforhodamine B (SRB) protein assay was applied to estimate the cell viability and growth, as reported earlier.

MDA-MB-468 = experiment: NCI one-dose SRB assay (Breast Cancer); type: cell-based, human; conditions: for Growth Percent: MDA-MB-468, 1.00E-5 Molar
Experimental: as §1, §2

MCF7 = experiment: NCI one-dose SRB assay (Breast Cancer); type: cell-based, human; conditions: for Growth Percent: MCF7, 1.00E-5 Molar
Experimental: as §1, §2

MDA-MB-231 = experiment: NCI one-dose SRB assay (Breast Cancer); type: cell-based, human; conditions: for Growth Percent: MDA-MB-231/ATCC, 1.00E-5 Molar
Experimental: as §1, §2

HS 578T = experiment: NCI one-dose SRB assay (Breast Cancer); type: cell-based, human; conditions: for Growth Percent: 1.00E-5 Molar
Experimental: as §1, §2

BT-549 = experiment: NCI one-dose SRB assay (Breast Cancer); type: cell-based, human; conditions: for Growth Percent: BT-549, 1.00E-5 Molar
Experimental: as §1, §2

HCT-15 = experiment: NCI one-dose SRB assay (Colon Cancer); type: cell-based, human; conditions: for Growth Percent: HCT-15, 1.00E-5 Molar
Experimental: as §1, §2

HCC-2998 = experiment: NCI one-dose SRB assay (Colon Cancer); type: cell-based, human; conditions: for Growth Percent: HCC-2998, 1.00E-5 Molar
Experimental: as §1, §2

HT29 = experiment: NCI one-dose SRB assay (Colon Cancer); type: cell-based, human; conditions: for Growth Percent: HT29, 1.00E-5 Molar
Experimental: as §1, §2

HCT-116 = experiment: NCI one-dose SRB assay (Colon Cancer); type: cell-based, human; conditions: for Growth Percent: HCT-116, 1.00E-5 Molar
Experimental: as §1, §2

[1] = system: breast cancer MCF-7 cell line; experiment: In vitro anti-proliferative activity, MTT assay; type: cell-based, human; conditions: MCF-7, MTT
Experimental: The in vitro anti-proliferative activity of the newly prepared pyridine-ureas 8a–n was examined against breast cancer MCF-7 cell line. The assay was carried out, as triplicates, utilizing the 3-(4,5-dimethylthiazol-2-yl)-2,5-diphenyltetrazolium bromide (MTT) colorimetric assay as described by T. Mosmann. Doxorubicin and Sorafenib were included in this assay as a reference drug.
MCF-7 (human breast cancer cell line) and WI-38 (human lung fibroblast cell line), were obtained from American Type Culture Collection (Manassas, VA, USA). The cells were propagated in DMEM and supplemented with 10% heat-inactivated FBS (Hyclone), 10 μg/mL of insulin (Manufacturer, Sigma, St. Louis, MO, USA), and 1% penicillin-streptomycin. MTT assay was utilized to examine the in vitro anti-proliferative activity of the newly prepared ureas following the reported procedures. […] The data presented are the mean of at least three separate experiments.

UACC-62 = experiment: NCI one-dose SRB assay (Melanoma); type: cell-based, human; conditions: for Growth Percent: UACC-62, 1.00E-5 Molar
Procedure, shortened: (§3)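 SRB assay, 48 h drug exposure, compound fixed at 10^−5 M; output expressed as % growth inhibition.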

SK-MEL-2 = experiment: NCI one-dose SRB assay (Melanoma); type: cell-based, human; conditions: for Growth Percent: SK-MEL-2, 1.00E-5 Molar
Procedure, shortened: as §3

SK-MEL-5 = experiment: NCI one-dose SRB assay (Melanoma); type: cell-based, human; conditions: for Growth Percent: SK-MEL-5, 1.00E-5 Molar
Procedure, shortened: as §3

MDA-MB-435 = experiment: NCI one-dose SRB assay (Melanoma); type: cell-based, human; conditions: for Growth Percent: MDA-MB-435, 1.00E-5 Molar
Procedure, shortened: as §3

M14 = experiment: NCI one-dose SRB assay (Melanoma); type: cell-based, human; conditions: for Growth Percent: M14, 1.00E-5 Molar
Procedure, shortened: as §3

SNB-19 = experiment: NCI one-dose SRB assay (CNS Cancer); type: cell-based, human; conditions: for Growth Percent: SNB-19, 1.00E-5 Molar
Experimental: as §1, §2

SF-295 = experiment: NCI one-dose SRB assay (CNS Cancer); type: cell-based, human; conditions: for Growth Percent: SF-295, 1.00E-5 Molar
Experimental: as §1, §2

U251 = experiment: NCI one-dose SRB assay (CNS Cancer); type: cell-based, human; conditions: for Growth Percent: U251, 1.00E-5 Molar
Experimental: as §1, §2

SF-539 = experiment: NCI one-dose SRB assay (CNS Cancer); type: cell-based, human; conditions: for Growth Percent: SF-539, 1.00E-5 Molar
Experimental: as §1, §2

SF-268 = experiment: NCI one-dose SRB assay (CNS Cancer); type: cell-based, human; conditions: for Growth Percent: SF-268, 1.00E-5 Molar
Experimental: as §1, §2

SNB-75 = experiment: NCI one-dose SRB assay (CNS Cancer); type: cell-based, human; conditions: for Growth Percent: SNB-75, 1.00E-5 Molar
Experimental: as §1, §2

[2] = 48 h of incubation, read-out: IC50 48 h

## 1-(4-Chloro-4-(trifluoromethyl)cyclohexa-2,5-dien-1-yl)-3-(6-(3,4-dimethoxyphenyl)-2-methylpyridin-3-yl)urea [Compound 8l]
T-47D; 10 μM
  Percentage growth inhibition (GI%): 51%
T-47D
  Growth Percent: 49.20%
MDA-MB-468; MDA-MB-468, 10 μM
  Percentage growth inhibition (GI%): 52%
MDA-MB-468
  Growth Percent: 48.57%
MCF7; MCF7, 10 μM
  Percentage growth inhibition (GI%): 42%
MCF7
  Growth Percent: 58.28%
MDA-MB-231; MDA-MB-231, 10 μM
  Percentage growth inhibition (GI%): 12%
MDA-MB-231
  Growth Percent: 88.41%
HS 578T; 10 μM
  Percentage growth inhibition (GI%): 19%
HS 578T
  Growth Percent: 81.01%
BT-549; BT-549, 10 μM
  Percentage growth inhibition (GI%): 12%
BT-549
  Growth Percent: 88.97%
HCT-15; HCT-15, 10 μM
  Percentage growth inhibition (GI%): 51%
HCT-15
  Growth Percent: 49.62%
HCC-2998; HCC-2998, 10 μM
  Percentage growth inhibition (GI%): - (Only GI% higher than 10% are shown)
HCC-2998
  Growth Percent: 93.63%
HT29; HT29, 10 μM
  Percentage growth inhibition (GI%): 44%
HT29
  Growth Percent: 56.20%
HCT-116; HCT-116, 10 μM
  Percentage growth inhibition (GI%): 55%
HCT-116
  Growth Percent: 45.30%
[1]; [2]
  IC50: 7.03 ± 0.61 µM
[1]; 72 h of incubation, read-out: IC50 72 h
  IC50: 21.4 ± 2.03 µM
UACC-62; UACC-62, 10 μM
  Percentage growth inhibition (GI%): 23%
UACC-62
  Growth Percent: 77.31%
SK-MEL-2; SK-MEL-2, 10 μM
  Percentage growth inhibition (GI%): 13%
SK-MEL-2
  Growth Percent: 87.87%
SK-MEL-5; SK-MEL-5, 10 μM
  Percentage growth inhibition (GI%): 37%
SK-MEL-5
  Growth Percent: 63.85%
MDA-MB-435; MDA-MB-435, 10 μM
  Percentage growth inhibition (GI%): 23%
MDA-MB-435
  Growth Percent: 77.84%
M14; M14, 10 μM
  Percentage growth inhibition (GI%): 53%
M14
  Growth Percent: 47.02%
SNB-19; SNB-19, 10 μM
  Percentage growth inhibition (GI%): 22%
SNB-19
  Growth Percent: 78.75%
SF-295; SF-295, 10 μM
  Percentage growth inhibition (GI%): 29%
SF-295
  Growth Percent: 71.54%
U251; U251, 10 μM
  Percentage growth inhibition (GI%): 45%
U251
  Growth Percent: 55.26%
SF-539; SF-539, 10 μM
  Percentage growth inhibition (GI%): 13%
SF-539
  Growth Percent: 87.81%
SF-268; SF-268, 10 μM
  Percentage growth inhibition (GI%): 25%
SF-268
  Growth Percent: 75.77%
SNB-75; SNB-75, 10 μM
  Percentage growth inhibition (GI%): 20%
SNB-75
  Growth Percent: 80.45%

## COc1ccc(-c2ccc(NC(=O)Nc3cccc(Cl)c3)c(C)n2)cc1OC [Compound 8j, 1-(3-Chlorophenyl)-3-(6-(3,4-dimethoxyphenyl)-2-methylpyridin-3-yl) Urea]
T-47D
  Growth Percent: 49.90%
T-47D; Homo sapiens, T47D, 10 μM, read-out: Percentage growth inhibition (GI%)
  inhibition at 10 µM: 51%
MDA-MB-468; Homo sapiens, MDA-MB-468, 10 μM, read-out: Percentage growth inhibition (GI%)
  inhibition at 10 µM: 29%
MDA-MB-468
  Growth Percent: 71.36%
MCF7; Homo sapiens, MCF7, 10 μM, read-out: Percentage growth inhibition (GI%)
  inhibition at 10 µM: 25%
MCF7
  Growth Percent: 75.86%
MDA-MB-231; Homo sapiens, MDA-MB-231, 10 μM, read-out: Percentage growth inhibition (GI%)
  inhibition at 10 µM: 13%
MDA-MB-231
  Growth Percent: 87.05%
HS 578T
  Growth Percent: 95.46%
HS 578T; Homo sapiens, 10 μM, read-out: Percentage growth inhibition (GI%)
  inhibition at 10 µM: < 10%
BT-549
  Growth Percent: 91.71%
BT-549; Homo sapiens, BT-549, 10 μM, read-out: Percentage growth inhibition (GI%)
  inhibition at 10 µM: < 10%
HCT-15
  Growth Percent: 60.62%
HCT-15; Homo sapiens, HCT-15, 10 μM, read-out: Percentage growth inhibition (GI%)
  inhibition at 10 µM: 40%
HCC-2998
  Growth Percent: 88.09%
HCC-2998; Homo sapiens, HCC-2998, 10 μM, read-out: Percentage growth inhibition (GI%)
  inhibition at 10 µM: 12%
HT29
  Growth Percent: 74.98%
HT29; Homo sapiens, HT-29, HT29, 10 μM, read-out: Percentage growth inhibition (GI%)
  inhibition at 10 µM: 26%
HCT-116
  Growth Percent: 63.31%
HCT-116; Homo sapiens, HCT-116, 10 μM, read-out: Percentage growth inhibition (GI%)
  inhibition at 10 µM: 37%
[1]; Homo sapiens, MCF7, 48 h, 48 h of incubation, read-out: IC50 48 h
  IC50: 10.1 µM
[1]; Homo sapiens, MCF7, 72 h, 72 h of incubation, read-out: IC50 72 h
  IC50: 26.2 ± 2.17 µM
[1]; [2]
  IC50: 10.9 ± 1.03 µM
UACC-62; Homo sapiens, UACC-62, 10 μM, read-out: Percentage growth inhibition (GI%)
  inhibition at 10 µM: 25%
UACC-62
  Growth Percent: 75.01%
SK-MEL-2; Homo sapiens, SK-MEL-2, 10 μM, read-out: Percentage growth inhibition (GI%)
  inhibition at 10 µM: 16%
SK-MEL-2
  Growth Percent: 84.73%
SK-MEL-5; Homo sapiens, SK-MEL-5, 10 μM, read-out: Percentage growth inhibition (GI%)
  inhibition at 10 µM: 32%
SK-MEL-5
  Growth Percent: 68.63%
MDA-MB-435; Homo sapiens, MDA-MB-435, 10 μM, read-out: Percentage growth inhibition (GI%)
  inhibition at 10 µM: 13%
MDA-MB-435
  Growth Percent: 87.66%
M14; Homo sapiens, M14, 10 μM, read-out: Percentage growth inhibition (GI%)
  inhibition at 10 µM: 50%
M14
  Growth Percent: 50.80%
other
  melting point: 249 to 250 °C
SNB-19; Homo sapiens, SNB-19, 10 μM, read-out: Percentage growth inhibition (GI%)
  inhibition at 10 µM: < 10%
SNB-19
  Growth Percent: 97.00%
SF-295; Homo sapiens, SF-295, 10 μM, read-out: Percentage growth inhibition (GI%)
  inhibition at 10 µM: 17%
SF-295
  Growth Percent: 83.73%
U251; Homo sapiens, U-251, U251, 10 μM, read-out: Percentage growth inhibition (GI%)
  inhibition at 10 µM: 17%
U251
  Growth Percent: 83.31%
SF-539; Homo sapiens, SF-539, 10 μM, read-out: Percentage growth inhibition (GI%)
  inhibition at 10 µM: 11%
SF-539
  Growth Percent: 89.70%
SF-268; Homo sapiens, SF-268, 10 μM, read-out: Percentage growth inhibition (GI%)
  inhibition at 10 µM: 13%
SF-268
  Growth Percent: 87.00%
SNB-75; Homo sapiens, SNB-75, 10 μM, read-out: Percentage growth inhibition (GI%)
  inhibition at 10 µM: 16%
SNB-75
  Growth Percent: 84.12%

— publication PMC6100082, “Pyridine-Ureas as Potential Anticancer Agents: Synthesis and In Vitro Biological Evaluation” (Molecules : A Journal of Synthetic Chemistry and Natural …, 2018)
